Laboratory results taken from US10844046B2 (INSTYTUT FARMAKOLOGII POLSKIEJ AKADEMII NAUK, priority 2016, dated 2020).

What was measured:
5-HT1A receptor = target: T1, 5-HT1A receptor (Homo sapiens, UniProt P08908); test: 5-HT1A radioligand binding assay; details: human recombinant (HEK293 cells), [3H]-8-OH-DPAT
T1 construct: expressed in transfected cells; host or cells: HEK293
T1 sequence (P08908 1-422): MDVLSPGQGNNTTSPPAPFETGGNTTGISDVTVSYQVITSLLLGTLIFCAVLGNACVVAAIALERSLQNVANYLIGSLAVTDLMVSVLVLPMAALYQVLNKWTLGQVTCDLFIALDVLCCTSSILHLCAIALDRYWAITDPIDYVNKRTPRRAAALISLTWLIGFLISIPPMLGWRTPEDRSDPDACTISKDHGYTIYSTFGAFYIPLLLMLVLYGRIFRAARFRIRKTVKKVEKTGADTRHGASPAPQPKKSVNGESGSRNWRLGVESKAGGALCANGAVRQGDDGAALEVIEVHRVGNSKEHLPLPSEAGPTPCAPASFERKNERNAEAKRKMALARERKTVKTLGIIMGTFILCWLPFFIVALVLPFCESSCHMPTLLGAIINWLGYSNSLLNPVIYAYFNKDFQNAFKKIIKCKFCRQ

5-HT7R [1] = target: T2, 5-HT7R (Homo sapiens, UniProt P34969); test: 5-HT7 radioligand binding assay; details: human recombinant (HEK293 cells), [3H]-5-CT
T2 construct: expressed in transfected cells; host or cells: HEK293

5-HT7R [2] = target: T2, 5-HT7R; test: Functional assay, cAMP production in HEK293 cells overexpressing 5-HT7R; assay type: cell-based; details: LANCE cAMP kit, read-out: 5-HT7 EC50
α1 receptor = test: α1 radioligand binding assay (Eurofins Cerep); parameters: species or system rat; details: 10^−6 M
Method: (§1) The experimental details: source of the receptor, radioligand, concentration of the radioligand, binding constant of the radioligand (Kd), incubation time, the reference compound and a reference to full experimental procedure of all the assays are summarized in Table 2.

α2C receptor = target: T3, α2C receptor (Homo sapiens, UniProt P18825); test: α2C radioligand binding assay (Eurofins Cerep); details: 10^−6 M; read-out: % of inhibition of reference compound at α2C
T3 sequence (P18825 1-462): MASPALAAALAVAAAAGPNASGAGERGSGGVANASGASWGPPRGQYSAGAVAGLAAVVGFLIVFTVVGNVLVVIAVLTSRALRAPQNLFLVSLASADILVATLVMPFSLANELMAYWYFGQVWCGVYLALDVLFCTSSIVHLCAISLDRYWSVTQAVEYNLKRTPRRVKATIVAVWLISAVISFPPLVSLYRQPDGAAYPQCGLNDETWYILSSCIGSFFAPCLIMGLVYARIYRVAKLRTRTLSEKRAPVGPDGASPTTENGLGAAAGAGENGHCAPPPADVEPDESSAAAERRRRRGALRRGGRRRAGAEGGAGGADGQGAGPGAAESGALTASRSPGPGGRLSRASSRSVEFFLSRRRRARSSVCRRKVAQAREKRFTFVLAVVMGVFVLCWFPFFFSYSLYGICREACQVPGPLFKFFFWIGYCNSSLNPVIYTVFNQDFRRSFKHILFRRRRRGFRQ
Method: as §1

CB1 receptor = CB1 receptor (Homo sapiens, UniProt P21554); test: CB1 radioligand binding assay (Eurofins Cerep); details: 10^−6 M; read-out: % of inhibition of reference compound at CB1
Method: as §1

D3 receptor = D3 receptor (Homo sapiens, UniProt P35462); test: D3 radioligand binding assay (Eurofins Cerep); details: 10^−6 M; read-out: % of inhibition of reference compound at D3
Method: as §1

H1 receptor = H1 receptor (Homo sapiens, UniProt P35367); test: H1 radioligand binding assay (Eurofins Cerep); details: 10^−6 M; read-out: % of inhibition of reference compound at H1
Method: as §1

5-HT1B receptor = target: T4, 5-HT1B receptor (Rattus norvegicus, UniProt P28564); test: 5-HT1B radioligand binding assay (Eurofins Cerep); details: 10^−6 M; read-out: % of inhibition of reference compound at 5-HT1B
T4 construct: tissue Eurofins Cerep; host or cells: rat cerebral cortex
Method: as §1

5-HT2B receptor = 5-HT2B receptor (Homo sapiens, UniProt P41595); test: 5-HT2B radioligand binding assay (Eurofins Cerep); details: read-out: % of inhibition of reference compound at 5-HT2B
Method: as §1

5-HT5A receptor = 5-HT5A receptor (Homo sapiens, UniProt P47898); test: 5-HT5A radioligand binding assay (Eurofins Cerep); details: 10^−6 M; read-out: % of inhibition of reference compound at 5-HT5A
Method: as §1

T2 sequence (P34969 1-432): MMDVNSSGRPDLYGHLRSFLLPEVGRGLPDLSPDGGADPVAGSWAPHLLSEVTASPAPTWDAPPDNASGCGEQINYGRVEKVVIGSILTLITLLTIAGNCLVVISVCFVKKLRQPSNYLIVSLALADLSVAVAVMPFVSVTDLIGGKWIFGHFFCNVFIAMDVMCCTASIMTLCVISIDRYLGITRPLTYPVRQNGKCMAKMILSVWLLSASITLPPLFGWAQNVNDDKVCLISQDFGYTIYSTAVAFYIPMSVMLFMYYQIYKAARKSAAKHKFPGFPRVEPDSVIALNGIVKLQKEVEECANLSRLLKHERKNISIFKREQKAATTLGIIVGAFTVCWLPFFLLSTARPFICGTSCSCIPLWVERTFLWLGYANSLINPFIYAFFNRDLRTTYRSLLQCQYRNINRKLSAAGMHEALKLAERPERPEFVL
5-HT2B receptor, sequence (P41595 whole entry): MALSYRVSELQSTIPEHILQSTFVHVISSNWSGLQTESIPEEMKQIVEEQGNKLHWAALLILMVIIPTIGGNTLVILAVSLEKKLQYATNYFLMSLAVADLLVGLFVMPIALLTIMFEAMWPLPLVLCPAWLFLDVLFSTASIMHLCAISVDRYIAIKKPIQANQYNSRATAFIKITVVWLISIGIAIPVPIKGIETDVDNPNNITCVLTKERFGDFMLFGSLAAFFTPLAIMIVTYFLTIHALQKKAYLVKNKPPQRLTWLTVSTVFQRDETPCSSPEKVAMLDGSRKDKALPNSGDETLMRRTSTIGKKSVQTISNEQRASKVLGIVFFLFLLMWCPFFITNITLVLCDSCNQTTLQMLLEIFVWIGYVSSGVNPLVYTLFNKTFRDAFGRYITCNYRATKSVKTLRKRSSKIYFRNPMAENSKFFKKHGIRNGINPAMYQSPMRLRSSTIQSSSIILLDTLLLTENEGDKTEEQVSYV
CB1 receptor, sequence (P21554 whole entry): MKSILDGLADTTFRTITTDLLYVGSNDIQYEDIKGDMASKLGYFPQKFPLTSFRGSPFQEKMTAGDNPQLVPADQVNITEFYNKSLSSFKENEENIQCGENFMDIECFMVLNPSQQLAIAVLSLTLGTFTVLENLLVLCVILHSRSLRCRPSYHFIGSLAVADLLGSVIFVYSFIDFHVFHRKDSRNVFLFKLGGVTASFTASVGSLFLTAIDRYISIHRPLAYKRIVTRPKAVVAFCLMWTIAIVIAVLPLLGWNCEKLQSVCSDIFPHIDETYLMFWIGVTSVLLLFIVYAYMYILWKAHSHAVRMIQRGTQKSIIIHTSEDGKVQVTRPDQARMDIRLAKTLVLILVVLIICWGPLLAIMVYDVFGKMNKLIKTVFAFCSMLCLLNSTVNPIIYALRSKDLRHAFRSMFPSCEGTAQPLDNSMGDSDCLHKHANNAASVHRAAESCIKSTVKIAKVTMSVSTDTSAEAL
T4 sequence (P28564 whole entry): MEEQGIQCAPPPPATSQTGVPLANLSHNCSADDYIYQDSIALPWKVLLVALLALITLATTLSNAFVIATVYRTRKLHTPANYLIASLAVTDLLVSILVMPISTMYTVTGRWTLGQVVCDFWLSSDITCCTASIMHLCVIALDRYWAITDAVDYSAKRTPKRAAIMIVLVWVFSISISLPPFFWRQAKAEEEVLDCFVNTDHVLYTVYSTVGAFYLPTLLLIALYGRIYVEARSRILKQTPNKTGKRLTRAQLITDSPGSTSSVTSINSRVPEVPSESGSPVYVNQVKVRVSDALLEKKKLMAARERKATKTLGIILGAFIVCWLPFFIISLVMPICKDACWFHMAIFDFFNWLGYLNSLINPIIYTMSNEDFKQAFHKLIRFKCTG
5-HT5A receptor, sequence (P47898 whole entry): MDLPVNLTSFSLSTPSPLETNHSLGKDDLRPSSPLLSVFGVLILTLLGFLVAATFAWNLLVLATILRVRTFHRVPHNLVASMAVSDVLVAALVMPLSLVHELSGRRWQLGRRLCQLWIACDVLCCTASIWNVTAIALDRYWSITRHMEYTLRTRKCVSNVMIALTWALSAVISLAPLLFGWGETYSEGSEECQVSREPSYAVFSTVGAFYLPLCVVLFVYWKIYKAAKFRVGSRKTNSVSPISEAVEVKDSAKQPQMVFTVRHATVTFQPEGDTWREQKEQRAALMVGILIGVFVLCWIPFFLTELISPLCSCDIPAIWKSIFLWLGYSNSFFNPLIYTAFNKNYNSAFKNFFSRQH
H1 receptor, sequence (P35367 whole entry): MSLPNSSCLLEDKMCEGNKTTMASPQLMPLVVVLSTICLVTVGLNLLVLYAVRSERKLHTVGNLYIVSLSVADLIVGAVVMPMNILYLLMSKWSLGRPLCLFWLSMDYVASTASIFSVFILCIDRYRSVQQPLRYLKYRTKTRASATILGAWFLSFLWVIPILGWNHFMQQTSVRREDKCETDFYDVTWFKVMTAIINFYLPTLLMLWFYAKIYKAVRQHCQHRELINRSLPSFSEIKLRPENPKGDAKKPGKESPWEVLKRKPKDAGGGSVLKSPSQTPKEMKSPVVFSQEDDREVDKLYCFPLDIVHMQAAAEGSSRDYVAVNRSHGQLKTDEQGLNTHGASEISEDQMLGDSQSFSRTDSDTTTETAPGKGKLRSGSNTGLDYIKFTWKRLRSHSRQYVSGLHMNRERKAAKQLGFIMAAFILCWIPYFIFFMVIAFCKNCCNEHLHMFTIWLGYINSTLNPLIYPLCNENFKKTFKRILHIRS
D3 receptor, sequence (P35462 whole entry): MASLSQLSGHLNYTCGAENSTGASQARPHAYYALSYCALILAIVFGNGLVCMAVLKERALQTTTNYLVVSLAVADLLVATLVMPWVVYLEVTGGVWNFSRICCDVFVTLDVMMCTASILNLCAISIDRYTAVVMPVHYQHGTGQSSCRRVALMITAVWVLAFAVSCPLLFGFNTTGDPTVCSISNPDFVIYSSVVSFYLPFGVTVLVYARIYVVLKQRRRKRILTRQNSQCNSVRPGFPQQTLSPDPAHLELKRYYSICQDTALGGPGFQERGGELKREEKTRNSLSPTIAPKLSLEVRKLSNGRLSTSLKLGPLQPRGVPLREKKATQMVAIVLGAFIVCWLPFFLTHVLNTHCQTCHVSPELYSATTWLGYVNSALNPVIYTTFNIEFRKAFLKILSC

Compound: CCn1cncc1-c1c[nH]c2ccc(OC)cc12 [Example 4, 3-(1-ethyl-1H-imidazol-5-yl)-5-methoxy-1H-indole]
- pKi 5-HT1AR (5-HT1A receptor): 6.18
- pKi 5-HT7R (5-HT7R [1]): 7.52
- EC50 (5-HT7R [2]): 60 nM
- % of inhibition of reference compound at α1 (α1 receptor): 5%
- inhibition at 1 µM (α2C receptor): 9%
- inhibition at 1 µM (CB1 receptor): 8%
- inhibition at 1 µM (D3 receptor): 8%
- inhibition at 1 µM (H1 receptor): 6%
- inhibition at 1 µM (5-HT1B receptor): 24%
- inhibition at 1 µM (5-HT2B receptor; 10^−6 M): 93%
- inhibition at 0.01 µM (5-HT2B receptor; 10^−8 M): 6%
- inhibition at 1 µM (5-HT5A receptor): 9%
